In patent US4009264A, “Complexes of polysaccharides or derivatives thereof with reduced glutathione and process for preparing said complexes” (Meito Sangyo Kabushiki Kaisha, priority 1975, dated 1977):

Columns and labels:
[1] = Auto-oxidation of other SH-containing compounds in the presence and absence of the complex (amperometric silver titration); type: physicochemical; details: 37° C.
Method: In these Figures, the axis of abscissa represents the incubating time in minutes, and the axis of ordinates, the SH redidual ratio (%) of the above compounds.
The above residual ratio is measured after dissolving the sample in a sodium phosphate buffer (0.1 m, pH 8.0) in the presence of copper sulfate (5 × 10^-^7 m), and incubating at 37° C. The SH content is measured by an amperometric silver titration.

[2] = test system: damage of liver induced by D-galactosamine hydrochloride; assay: Prophylactic activity on damage of liver induced by D-galactosamine hydrochloride; type: in vivo, Wister female rats; details: administered beforehand; summary of Table 1
Method: The damage of liver was induced by administering D-galactosamine hydrochloride.
Wister female rats weighing 100 to 120 g (10 in a group) which had been fasted for 2 hours were used. Three groups were prepared. […] Still another group was administered only with 1 ml. of an isotonic sodium chloride solution. One hour after the administration, a solution obtained by dissolving 50 mg of D-glactosamine hydrochloride in 1 ml. of an isotonic sodium chloride solution and adjusting the pH of the solution to 7.0 with 0.1N sodium hydroxide was administered intraperitoneally.
After a lapse of 22 hours from the administration of D-galactosamine hydrochloride, blood was extracted from the abdominal aorta. GOT, GPT, bilirubin, and glucose in the plasma were measured. Furthermore, the liver was cut out, and its lipid and neutral fat were measured.

[3] = Stability of the thiol group to auto-oxidation: residual ratio of the active SH group (residual activity); type: physicochemical; details: 40° C.
Method: The residual ratio of the active SH group, or simply called the residual activity, as used in this application is determined as follows:
The complex of this invention and other SH-containing compounds are incubated at a certain termperature in a sodium phosphate buffer (0.1 M, pH 8.0). Aliquotes are withdrawn at intervals and immediately the active SH group contents of the samples are determined. The maximum content obtained is made 100 (%), and the active SH group content of each of the samples is expressed in percentage based on this maximum content.

[4] = literature report; cited from earlier work

Compound: NCCS [cysteamine]
- SH residual ratio of cysteamine alone ([1]; 60 minutes, sodium phosphate buffer pH 8.0, copper sulfate 5 × 10^-7 M): zero

Compound: CC(C)(S)[C@@H](N)C(=O)O [penicillamine]
- SH residual ratio of penicillamine alone ([1]; 60 minutes, pH 8.0, copper sulfate 5 × 10^-7 M): about 15%

Compound: N[C@@H](CCC(=O)N[C@@H](CS)C(=O)NCC(=O)O)C(=O)O [reduced glutathione]
- inhibition of the D-galactosamine-induced increase (GOT, GPT, bilirubin, liver lipid, neutral fat) or decrease (glucose) [2]: inhibited
- residual ratio of the active SH group (residual activity of the reduced glutathione) ([3]; after 6 hours, sodium phosphate buffer 0.1 M pH 8.0, FeCl3 1.2 × 10^-5 M): about 40%
- residual ratio of the active SH group ([3]; after 8 hours, sodium phosphate buffer 0.1 M pH 8.0): about 20%
- SH residual ratio of reduced glutathione alone ([1]; 180 minutes, final concentration 1 × 10^-3 M, pH 8.0, copper sulfate 5 × 10^-7 M): about 20%

Compound: complex of dextran and insulin: literature complex of activated dextran and insulin (Acta Chem. Scand. 25, 1855-1859, 1971)
- activity relative to the free insulin [4]: 1/36
